Experimental data from US8158628B2, “Sulfonylated 1,2,3,4-tetrahydropyrrolo[1,2-a]pyrazine compounds and their use as pharmaceuticals” (Gruenenthal GmbH, priority 2009, dated 2012).

Experiments:
human B1R = biological target: T1, human B1R (Homo sapiens, UniProt P46663); experiment: FLIPR Ca2+ functional assay, B1R antagonism, human B1R in CHO K1 cells; type: cell-based; details: test substance 10 μM; hB1R CHO K1 cells; agonist Lys-Des-Arg9 bradykinin at EC80; % of maximum achievable inhibition
T1 construct: expressed in transfected cells; host or cells: CHO K1 cells (Chinese hamster ovary), stably transfected
T1 sequence (P46663 1-353): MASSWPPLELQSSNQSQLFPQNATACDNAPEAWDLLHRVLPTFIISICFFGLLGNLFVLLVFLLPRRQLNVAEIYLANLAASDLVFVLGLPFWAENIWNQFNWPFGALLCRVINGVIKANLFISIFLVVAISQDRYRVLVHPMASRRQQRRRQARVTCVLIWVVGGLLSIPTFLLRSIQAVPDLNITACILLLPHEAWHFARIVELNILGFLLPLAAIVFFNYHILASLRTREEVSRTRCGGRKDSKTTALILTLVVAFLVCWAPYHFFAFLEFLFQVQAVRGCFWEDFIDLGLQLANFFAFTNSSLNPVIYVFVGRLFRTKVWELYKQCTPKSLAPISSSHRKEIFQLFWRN
Procedure, shortened: (§1)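 Stably transfected CHO K1 cells loaded with Fluo-4; Ca2+ fluorescence read on FLIPR (ex 488/em 540 nm). Compound preincubated 10-20 min, then agonist at EC80: Lys-Des-Arg9 bradykinin (human) or Des-Arg9 bradykinin (rat). % inhibition vs maximal inhibition; IC50 from concentration series, n=2-3, N>=2.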

B1R of the rat = biological target: T2, B1R of the rat (Rattus norvegicus, UniProt P97583); experiment: FLIPR Ca2+ functional assay, B1R antagonism, rat B1R in CHO K1 cells; type: cell-based; details: test substance 10 μM; rB1R CHO K1 cells; agonist Des-Arg9 bradykinin at EC80; % of maximum achievable inhibition
T2 construct: expressed in transfected cells; host or cells: CHO K1 cells (Chinese hamster ovary), stably transfected
T2 sequence (P97583 1-337): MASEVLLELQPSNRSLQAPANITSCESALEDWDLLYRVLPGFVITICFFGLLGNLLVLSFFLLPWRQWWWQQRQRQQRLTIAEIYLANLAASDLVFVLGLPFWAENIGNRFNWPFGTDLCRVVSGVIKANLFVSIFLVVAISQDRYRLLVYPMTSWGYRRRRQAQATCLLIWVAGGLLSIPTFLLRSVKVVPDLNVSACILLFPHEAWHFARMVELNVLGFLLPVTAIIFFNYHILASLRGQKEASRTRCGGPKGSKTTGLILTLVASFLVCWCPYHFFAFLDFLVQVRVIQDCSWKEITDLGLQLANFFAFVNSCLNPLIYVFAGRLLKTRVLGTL
Procedure, shortened: as §1

inhibition at 10 µM (human B1R) [%] | inhibition at 10 µM (B1R of the rat) [%] | SMILES
99.7 | 91.2 | Cc1ccc(S(=O)(=O)N2CCn3cccc3C2CC(=O)NC2CCCc3cc(CN(C)C(C)(C)C)ccc32)cc1 (stereo not shown) [Example 74, N-[6-[(tert-Butyl-methyl-amino)-methyl]-1,2,3,4-tetrahydro-naphthalen-1-yl]-2-[2-(p-tolylsulfonyl)-1,2,3,4-tetrahydro-pyrrolo[1,2-a]pyrazin-1-yl]-acetamide]
99.9 | 98.5 | Cc1cccc(Cl)c1S(=O)(=O)N1CCn2cccc2C1COCC(=O)N(C)CCC1CCN(c2ccncc2)CC1 (stereo not shown) [Example 16, 2-((2-(2-Chloro-6-methylphenylsulfonyl)-1,2,3,4-tetrahydropyrrolo[1,2-a]pyrazin-1-yl)methoxy)-N-methyl-N-(2-(1-(pyridin-4-yl)piperidin-4-yl)ethyl)acetamide]
